Experimental data published in publication PMC9457610, “Synthesis of thia-Michael-Type Adducts between Naphthoquinones and N-Acetyl-L-Cysteine and Their Biological Activity” (Molecules, 2022).

Assays:
HeLa = test: MTT cell viability assay, HeLa; assay type: cell-based; conditions: Homo sapiens, 48 h treatment, 0.01 to 200 μM, ± SD, n.a. = not active
Description: (§1) Molecules 8–12 were tested in vitro using the MTT assay against four cancer cell lines: HeLa, SH-SY5Y, SaOS2, and U2OS. […] Cytotoxic activities were expressed as IC50 values, i.e., the concentration of the substance that reduced cell viability by 50% (Table 2).
(§2) HeLa, SH-SY5Y, SaOS2, U2OS, and HDFa cell lines were purchased from American Type Culture Collection (ATCC; Manassas, VA, USA). HeLa, SaOS2, and U2OS cells were cultured in RPMI 1640 medium (Labtek Eurobio, Milan, Italy), while SH-SY5Y and HDFa cells were cultured in high-glucose DMEM (Labtek Eurobio, Milan, Italy), and both were supplemented with 10% FCS (Euroclone, Milan, Italy) and 2mM L-glutamine (Sigma-Aldrich, Milan, Italy), at 37 °C in a 5% CO2 atmosphere. The compounds were dissolved in DMSO in a 30–50 mM stock solution. In cell treatments, the final DMSO concentration never exceeded 0.1%.
(§3) Cells were seeded at 1.5 × 10^4 cells/well in a 96-well culture plastic plate (Orange Scientific, Braine-l’Alleud, Belgium), and after 24 h of growth, they were exposed to increasing concentrations of compounds (from 0.01 to 200 μM) solubilized in RPMI 1640 medium. After 48 h of treatment, the culture medium was replaced with 0.1 mL of 3-(4,5-dimethylthiazolyl-2)-2,5-diphenyltetrazolium bromide (MTT; Sigma-Aldrich, Milan, Italy) dissolved in PBS at the concentration of 0.2 mg/mL, and samples were incubated for 2 h at 37 °C. The formazan salt crystals formed were dissolved with 0.2 mL of isopropyl alcohol for 20 min. The absorbance at 570 nm was measured using a multi-well plate reader (Tecan, Männedorf, Switzerland), and data were analyzed using Prism GraphPad software and expressed as IC50.

SH-SY5Y = test: MTT cell viability assay, SH-SY5Y; assay type: cell-based; conditions: Homo sapiens, 48 h treatment, 0.01 to 200 μM, ± SD, n.a. = not active
Description: as §1, §2, §3

SaOS2 = test: MTT cell viability assay, SaOS2; assay type: cell-based; conditions: Homo sapiens, SAOS-2, 48 h treatment, 0.01 to 200 μM, ± SD, n.a. = not active
Description: as §1, §2, §3

U2OS = test: MTT cell viability assay, U2OS; assay type: cell-based; conditions: Homo sapiens, 48 h treatment, 0.01 to 200 μM, ± SD, n.a. = not active
Description: as §1, §2, §3

HDFa = test: MTT cell viability assay, normal cell line HDFa; assay type: cell-based; conditions: Homo sapiens, normal dermal fibroblast, 48 h treatment, ± SD
Description: as §1, §2, §3

[1] = system: HeLa, SH-SY5Y, SaOS2, and U2OS; test: MTT cell viability assay, all malignant cell lines tested (summary); assay type: cell-based, human; conditions: summary over HeLa, 48 h; for IC50: Homo sapiens, read-out: IC50 values against all the malignant cell lines tested
Description: as §1, §2, §3

HeLa cells [2] = test: Intracellular ROS level (DCFDA), HeLa; assay type: cell-based, human
Description: (§4) To further explore and establish a direct relationship between 8 or 11 and ROS, DCFH-DA staining was applied to HeLa, U2OS, and SH-SY5Y cells treated for 1 h and 48 h. […] Indeed, in HeLa cells, 8 induced an increase in ROS formation of 1.14 ± 0.042, while in U2OS and SH-SY5Y cells, the increases were 1.30 ± 0.13-fold and 1.51 ± 0.16-fold with respect to control, with p < 0.0001, p < 0.0005, and p < 0.0024, respectively. In the same way, 11 induced increases in ROS formation in HeLa cells of 1.27 ± 0.16, while in U2OS and SH-SY5Y cells, the increases were 1.62 ± 0.11-fold and 1.61 ± 0.14-fold with respect to control, with p < 0.0049, p < 0.0001, and p < 0.0056, respectively. Moreover, it is important to note that both compounds 8 and 11 induced a greater formation of ROS in U2OS and SH-SY5Y cells than in HeLa cells, as shown in Figure 5A.
(§5) Oxidative stress was measured in intact cells using an ROS indicator, 2′,7′-dichlorodihydrofluorescein diacetate (DCFDA; Thermo Fisher Scientific, Waltham, MA, USA). HeLa, U2OS, and SH-SY5Y cells were seeded in 96-well plates at 1.5 × 10^4 cells/well (Optiplate, Perkin Elmer, Milan, Italy), and after 24 h to allow adhesion, HeLa and SH-SY5Y cells were incubated with 5 μM GA 462 or 20 μM SM71, while U2OS were treated with 5 μM 8 or 30 μM 11, dissolved in complete medium for 1 or 48 h at 37 °C in 5% CO2 atmosphere. After this time, cells were washed with PBS and treated with 10 μM DCFDA in culture medium for 30 min. Finally, cells were washed again with PBS and the fluorescence value in each well was measured (λexc = 488 nm; λem = 530 nm) with a plate reader (Tecan, Männedorf, Switzerland). Fluorescence emission was normalized to protein content measured using the Bradford method.

U2OS cells [3] = test: Intracellular ROS level (DCFDA), U2OS; assay type: cell-based, human; conditions: 5 μM 8 or 30 μM 11; for increase in ROS formation with respect to control: 1 h; for ROS production: 48 h
Description: as §4, §5

SH-SY5Y cells [4] = test: Intracellular ROS level (DCFDA), SH-SY5Y; assay type: cell-based, human; conditions: for increase in ROS formation with respect to control: 1 h, 5 μM 8 (GA 462) or 20 μM 11 (SM71); for ROS production: 48 h, 5 μM 8 or 20 μM 11
Description: as §4, §5

HeLa cells [5] = test: Cell-cycle analysis (PI stain, flow cytometry), HeLa; assay type: cell-based, human; conditions: 5 μM
Description: (§6) For this reason, we decided to analyze the effects on proliferation by treating the cells only with 8. Next, we explored the effect of 5 μM 8 on cell-cycle distribution in HeLa, U2OS, and SH-SY5Y cancer cells using PI stain followed by flow cytometry. Cells were exposed to the compound for 24 or 48 h prior to processing and analysis.
(§7) The effects on the HeLa and U2OS cell cycles were studied after 24 or 48 h of treatment with 5 μM 8. Cells were detached with 0.11% trypsin, washed in PBS and centrifuged. The pellet was resuspended in 0.01% Nonidet P-40, 10 μg/mL RNase, 0.1% sodium citrate, and 50 μg/mL PI, for 30 min at room temperature in the dark. Flow cytometric analyses were performed as previously described.

U2OS cells [6] = test: Cell-cycle analysis (PI stain, flow cytometry), U2OS; assay type: cell-based, human; conditions: 5 μM
Description: as §6, §7

SH-SY5Y cells [7] = test: Cell-cycle analysis (PI stain, flow cytometry), SH-SY5Y; assay type: cell-based, human; conditions: 5 μM
Description: as §6, §7

[8] = 1 h, 5 μM 8 (GA 462) or 20 μM 11 (SM71)

SMILES | IC50 (HeLa) | IC50 (SH-SY5Y) | IC50 (U2OS) | IC50 [1] | melting point | IC50 values against all the malignant cell lines tested [1] | IC50 (SaOS2) | IC50 (HDFa) | increase in ROS formation with respect to control (HeLa cells [2]; [8]) | increase in ROS formation with respect to control (HeLa cells [2]; 48 h, 5 μM 8) | increase in ROS formation with respect to control (U2OS cells [3]) | ROS production (U2OS cells [3]) | increase in ROS formation with respect to control (SH-SY5Y cells [4]) | ROS production (SH-SY5Y cells [4]) | increase in the number of G0/G1-phase cells with respect to control (HeLa cells [5]; 24 h) | increase in the number of cells in the S phase with respect to control (HeLa cells [5]; 48 h) | increase in S-phase cells with respect to control (U2OS cells [6]; 24 h) | accumulation of cells in the S phase with respect to control (U2OS cells [6]; 48 h) | increase in S-phase cells with respect to control (SH-SY5Y cells [7]; 24 h) | accumulation of cells in the S phase with respect to control (SH-SY5Y cells [7]; 48 h)
CC(=O)N[C@@H](CSC1=CC(=O)c2ccccc2C1=O)C(=O)O [Compound 8, N-acetyl-S-(1,4-dioxo-1,4-dihydronaphthalen-2-yl)-L-cysteine] | 540 ± 50 nM | 870 ± 3 nM | 1810 ± 7 nM | 500 to 1810 nM |  |  | 1670 ± 10 nM | 7430 ± 20 nM | 1.14 ± 0.042 fold | 2.28 ± 0.47 fold | 1.30 ± 0.13 fold | no ROS production | 1.51 ± 0.16 fold | no ROS production | 1.3% | 1.2% | 1.3% | 1.1% | 1.1% | 1.3%
CC(=O)N[C@@H](CSC1=C(C)C(=O)c2cccc(O)c2C1=O)C(=O)O [Compound 10, N-acetyl-S-(8-hydroxy-3-methyl-1,4-dioxo-1,4-dihydronaphthalen-2-yl)-L-cysteine] |  |  |  |  | > 193 °C (dec.) | inactive |  |  |  |  |  |  |  |  |  |  |  |  |  | 
CC(=O)N[C@@H](CSC1=C(C)C(=O)c2ccccc2C1=O)C(=O)O [Compound 9, N-acetyl-S-(3-methyl-1,4-dioxo-1,4-dihydronaphthalen-2-yl)-L-cysteine] | 500 ± 80 nM | 960 ± 60 nM | 510 ± 60 nM | 500 to 1810 nM | 206.9 to 208.3 °C |  | 590 ± 40 nM | 3870 ± 10 nM |  |  |  |  |  |  |  |  |  |  |  | 

Continued, in another order:

IC50 (HeLa) | IC50 (SH-SY5Y) | IC50 (U2OS) | IC50 [1] | melting point | IC50 values against all the malignant cell lines tested [1] | SMILES | IC50 (SaOS2) | IC50 (HDFa) | increase in ROS formation with respect to control (HeLa cells [2]; [8]) | increase in ROS formation with respect to control (HeLa cells [2]; 48 h, 5 μM 8) | increase in ROS formation with respect to control (U2OS cells [3]) | ROS production (U2OS cells [3]) | increase in ROS formation with respect to control (SH-SY5Y cells [4]) | ROS production (SH-SY5Y cells [4]) | increase in the number of G0/G1-phase cells with respect to control (HeLa cells [5]; 24 h) | increase in the number of cells in the S phase with respect to control (HeLa cells [5]; 48 h) | increase in S-phase cells with respect to control (U2OS cells [6]; 24 h) | accumulation of cells in the S phase with respect to control (U2OS cells [6]; 48 h) | increase in S-phase cells with respect to control (SH-SY5Y cells [7]; 24 h) | accumulation of cells in the S phase with respect to control (SH-SY5Y cells [7]; 48 h)
1040 ± 8 nM | 630 ± 40 nM | 1650 ± 30 nM | 500 to 1810 nM | 238.2 to 239.9 °C |  | CC(=O)N[C@@H](CSC1=CC(=O)c2c(O)ccc(O)c2C1=O)C(=O)O [Compound 12, N-acetyl-S-(5,8-dihydroxy-1,4-dioxo-1,4-dihydronaphtalen-2-yl)-L-cysteine] | 1560 ± 30 nM | 830 ± 7 nM |  |  |  |  |  |  |  |  |  |  |  | 
13200 ± 50 nM | 11400 ± 1 nM | 30400 ± 5 nM |  | 209.8 to 211.7 °C |  | CC(=O)N[C@@H](CSC1=CC(=O)c2c(O)cccc2C1=O)C(=O)O [Compound 11, N-acetyl-S-(5-hydroxy-1,4-dioxo-1,4-dihydronaphthalen-2-yl)-L-cysteine] | 25900 ± 50 nM | 6880 ± 50 nM | 1.27 ± 0.16 fold |  | 1.62 ± 0.11 fold | no ROS production | 1.61 ± 0.14 fold | no ROS production |  |  |  |  |  | 
